Reference: PMC6445123 (Scientific Reports, 2019)
Read-outs that look alike come from different tables or passages of the source.

Target: T1, recombinant active Casp6 (Casp6-WT) (Homo sapiens, UniProt P55212, INS179NQTEKLDTNITEVD)
T1 construct: generating mainly large subunit with a linker (LS-L), small subunit (SS), and a minor amount of large subunit (LS); His (C); made in house; host or cells: E. coli BL21(DE3)pLysS
T1 sequence (P55212 24-193 limits assumed): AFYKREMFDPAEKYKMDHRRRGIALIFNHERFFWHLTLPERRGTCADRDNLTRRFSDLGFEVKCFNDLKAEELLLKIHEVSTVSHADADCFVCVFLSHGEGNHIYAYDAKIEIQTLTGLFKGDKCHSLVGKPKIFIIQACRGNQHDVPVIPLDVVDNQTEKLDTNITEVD
T1 sequence (P55212 194-293 limits assumed): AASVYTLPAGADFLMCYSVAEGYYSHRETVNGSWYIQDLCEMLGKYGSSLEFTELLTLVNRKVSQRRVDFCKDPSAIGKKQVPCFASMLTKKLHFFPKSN
Assay: Fluorescence-based Ac-VEID-AFC cleavage assay (Casp6 activity, IC50 determination)
Assay type: biochemical
Description: To assess the potency of in silico hits, a fluorescence-based Ac-VEID-AFC cleavage assay was used to measure recombinant active Casp6 reaction rate in the absence or presence of 100 µM concentration of compounds. A 30% inhibition cut off was arbitrarily chosen for further investigation of putative inhibitors. […] AFC signal interference by compound intrinsic fluorescence was ruled out (Fig. S4). Casp6 inhibition was confirmed for seven compounds (C7, C13, C14, S2, S10, S11 and S13) using a colorimetric Ac-VEID-pNA cleavage assay (Table 2, Fig. S3).
Casp6 active sites were quantified using zVAD-FMK (N-benzyloxycarbonyl-Val-Ala-Asp-(O-methyl)-fluoromethylketone, MP Biomedicals, Santa Ana, CA, USA)[51],[64]. Casp6 activity was measured in Stennicke’s buffer (SB: 20 mM piperazine-N,N′-bis-(2-ethanesulfonic acid) pH 7.2, 100 mM NaCl, 10 mM DTT, 1 mM EDTA, 0.1% 3-[(3-cholamidopropyl)-dimethylammonio]-2-hydroxy-1-propanesulfonic acid, 10% sucrose)[65] using 40 µM Ac-VEID-AFC (Ac-Val-Glu-Ile-Asp-7-Amino-4-trifluoromethylcoumarin, Enzo Life Sciences, Farmingdale, NY, USA)[64] and 10-250 nM active site titrated Casp6. Reactions were initiated by Ac-VEID-AFC addition and followed for 20 min at 37 °C in a black clear bottom 96-well microplate (Costar, Corning, NY, USA) in Synergy H4 Hybrid instrument (BioTek, Winooski, VT, USA) with excitation/emission at 380/505 nm. Released AFC was calculated from AFC standard curve (0-25 µM). Casp6 VEIDase activity (released pmol AFC/min) was calculated from the initial linear reaction part. Ac-VEID-AFC hydrolysis initial velocities were measured with 10 nM active-site titrated Casp6 and […] Ac-VEID-AFC. Initial velocities v versus substrate concentration [S] were fit to a rectangular hyperbola using Michaelis-Menten equation in GraphPad Prism 5 (GraphPad Software, La Jolla, CA, USA).
In fluorescence-based Casp6 activity assay, 10 µM Ac-VEID-AFC was added to 20 nM Casp6 in SB with 100 μM compound and 1% dimethyl sulfoxide (DMSO), and reaction rate was measured for 20 min at 37 °C as above. Compound potency was calculated by normalising Ac-VEID-AFC cleavage rate to 1% DMSO control. In colorimetric Casp6 activity assay, 200 µM Ac-VEID-pNA (N-acetyl-Val-Glu-Ile-Asp-p-nitroanilide, Enzo Life Sciences) was added to 200 nM Casp6 in SB with 100 μM compound, and Ac-VEID-pNA cleavage rate was measured at 37 °C for 30 min in clear 96-well plate (Sartstedt, Nümbrecht, Germany) using Synergy H4 plate reader at 405 nm. Absorbance was converted to the released pNA amount based on a standard curve of 0–250 µM pNA. Cleavage rates were calculated from the linear assay phase and were normalised to 1% DMSO control. In Casp6-C163A cleavage assay, 0.5 ng/µl Casp6-WT was preincubated with 100 µM inhibitor, 5 µM Q-VD-OPh or 1% DMSO in SB (30 min, RT), followed by transfer on ice, addition of 0.5 µg/µl Casp6-C163A, and incubation (37 °C, 5, 10 and 15 min). Reactions were stopped by adding SDS-PAGE sample buffer (62.5 mM Tris pH 6.8, 2% SDS, 0.1 M DTT, 0.01% Bromphenol Blue, 10% glycerol) and heating (5 min, 95 °C). Samples (2 µl) were analysed on 15% SDS-PAGE gels, proteins were stained with Coomassie blue, and gels were de-stained with 10% acetic acid. The intensities of protein bands were quantified from scanned gels using ImageJ. The band intensity of Casp6-C163A without a prodomain was plotted against the time and the Casp6-C163A cleavage rates were calculated from the slopes of linear plots. The % activity of Casp6-WT in the presence of inhibitors was calculated relative to DMSO control.
IC50 values were determined against 20 nM Casp6 active sites in fluorescence-based Casp6 activity assay with 10 µM Ac-VEID-AFC and 1 nM-500 µM inhibitor. IC50 was calculated with GraphPad Prism 5 by a nonlinear regression fit for log inhibitor vs relative Casp6 activity (% DMSO control) using a Hill slope of – 1, and top and bottom constraints of 100 and 0, respectively.

## COC(=O)c1cc(CNC(=O)C2Cc3ccccc3O2)cc(NC(=O)c2ccco2)c1 (stereo not shown) [Compound C13]
100 µM compound, 10 µM Ac-VEID-AFC, 20 nM Casp6, relative to 1% DMSO control
  inhibition at 100 µM: 57.1 ± 4.7%
Casp6-WT, compared with Casp6-K284A, read-out: IC50 of C13 for Casp6-WT (Fig. 4f)
  IC50: 17.2 ± 3.6 µM
Fluorescence assay, 20 nM Casp6 active sites, 10 µM Ac-VEID-AFC, read-out: IC50
  IC50: 13.2 ± 2.5 µM
Synthesised in the authors' laboratory vs commercial source
  potency for Casp6 of in-house synthesised compound compared to commercial compound: lower potency
